Reference: US20110009446A1, “OLIGOMER-GUANIDINE CLASS CONJUGATES” (Nektar Therapeutics, priority 2008, published 2011)
Structures can show the parent of a compound that is named as a salt.

Legend:
[1] = tested on: visceral pain in mice (CD-1 male mice); test: Analgesic assay (acetic acid-induced writhing); format: in vivo
Protocol: An analgesic assay was used to determine whether a given compound can reduce and/or prevent visceral pain in mice. The assay utilized CD-1 male mice (5-8 mice per group), each mouse being approximately 0.015-0.030 kg on the study day. Mice were treated according to standard protocols. Mice were given a single “pretreatment” dose of a compound lacking covalent attachment of a water-soluble, non-peptidic oligomer, a corresponding version comprising the compound covalently attached to a water-soluble, non-peptidic oligomer, or control solution (IV, SC, IP or orally) thirty minutes prior to the administration of the acetic acid solution. The animal was given an IP injection of an irritant (acetic acid) that induces “writhing” which may include: contractions of the abdomen, twisting and turning of the trunk, arching of the back and the extension of the hindlimbs. Mice were given a single IP injection (0.1 mL/10 g bodyweight) of a 0.5% acetic acid solution. After the injection the animals were returned to their observation enclosure and their behavior was observed. Contractions were counted between 0 and 20 minutes after the injection. The animals were used once. Each tested article was dosed at 1, 3 and 10 mg/kg (n=5 animals/dose).

[2] = biological target: T1, noradrenalin transporters (Rattus norvegicus, UniProt Q9WTR4); test: Radioligand binding assay ([3H]-nisoxetine competition) in rat forebrain membranes; settings: 1.0 nM [3H]-nisoxetine, 0-4° C., 4 hours, Cheng Prusoff correction
T1 construct: membranes prepared from rat forebrain which express noradrenalin transporters; from tissue; host or cells: rat forebrain membranes
T1 sequence (Q9WTR4 1-597): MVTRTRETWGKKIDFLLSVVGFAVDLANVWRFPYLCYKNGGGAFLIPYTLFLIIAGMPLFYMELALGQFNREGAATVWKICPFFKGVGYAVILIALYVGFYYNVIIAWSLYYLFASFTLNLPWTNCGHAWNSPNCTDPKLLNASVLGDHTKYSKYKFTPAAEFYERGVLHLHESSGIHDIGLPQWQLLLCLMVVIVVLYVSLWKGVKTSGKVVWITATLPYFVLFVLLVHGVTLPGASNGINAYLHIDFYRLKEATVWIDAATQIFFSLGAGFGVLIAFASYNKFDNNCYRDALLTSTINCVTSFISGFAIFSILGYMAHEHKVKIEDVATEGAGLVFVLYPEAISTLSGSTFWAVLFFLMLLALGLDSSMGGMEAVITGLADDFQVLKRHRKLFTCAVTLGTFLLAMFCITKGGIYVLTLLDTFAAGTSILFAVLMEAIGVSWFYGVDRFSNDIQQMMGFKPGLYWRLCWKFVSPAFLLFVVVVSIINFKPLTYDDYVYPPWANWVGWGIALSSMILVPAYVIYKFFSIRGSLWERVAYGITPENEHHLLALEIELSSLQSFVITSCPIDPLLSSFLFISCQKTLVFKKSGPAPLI
Protocol: Competition binding experiments are conducted by incubating membranes with 1.0 nM of radioligand, [^3H]-nisoxetine, in the presence of variable concentrations (0.1 nM to 3 μM and 1 nM to 30 μM for parent and PEG conjugates, respectively) of test compounds. The reaction is carried out in 50 mM Tris-HCl (pH 7.4), containing 300 mM NaCl and 5 mM KCl at 0-4° C. for 4 hours. Following incubations, the membranes are washed, and the bound radioactivity is measured. Non-specific binding is measured in the presence of excess desipramine (1.0 μM) as the cold ligand; this value is subtracted from the total binding to yield the specific binding at each test compound concentration.
Ki is obtained using the Cheng Prusoff correction using experimental Kd values that are previously determined under these assay conditions.

[3] = 10 mg/kg, 5 animals, acetic acid writhing

Structure (SMILES) | Mean (contractions/writhing counted) ([1]; 10 mg/kg single pretreatment dose 30 min before IP 0.5% acetic acid, contractions counted 0-20 min, CD-1 male mice) | No. of Responders [1, 3] | Responding Fraction [1, 3] | % Reduction in writhing ([1]; 10 mg/kg, CD-1 male mice, acetic acid writhing) [%] | Ki [2] [nM]
N=C(N)N1CCc2ccccc2C1 [Debrisoquine] | 49.6 | 0 | 0.00 | 10.6 | –
N=C(N)N1CCc2ccccc2C1 [Debrisoquine sulfate, debrisoquine sulfate] | – | – | – | – | 594
